Measured values as given in patent US10570149B2, “Tricyclic heterocylic derivatives” (MERCK PATENT GMBH, priority 2016, dated 2020).
pIC50: −log10 of the molar value.

These molecules were tested against T1, ATR/ATRIP (Homo sapiens, UniProt Q13535) (assay: ATR/ATRIP kinase assay (TR-FRET, p53 phosphorylation)). Conditions: Table 1, class symbols; read-out: ATR-ATRIP IC50.
T1 construct: human ATR, full length, GenBank ID: NM_001184.3; p53: Sf21 insect cells
Type: biochemical
Description: ATR/ATRIP Kinase Assay—Measurement of ATR/ATRIP Inhibition
The IC50 value was determined by an ATR/ATRIP enzymatic assay. The assay comprises two steps: the enzymatic reaction and the detection step. First, a mixture of ATR/ATRIP protein (Ataxia Telangiectasia and Rad3-related protein/ATR interacting protein), the compound in question at different concentrations, p53 as substrate protein and adenosine triphosphate (ATP) are incubated in assay buffer. ATR phosphorylates p53 at Ser15 and other residues. The amount of phosphorylated p53 is then detected using specific antibodies and the TR-FRET assay technology.
In detail: The ATR/ATRIP enzymatic assay is performed as a TR-FRET-(HTRF™, Cisbio Bioassays) based 384-well assay. In a first step, purified human recombinant ATR/ATRIP (human ATR, full length, GenBank ID: NM_001184.3, and human ATRIP, full length, GenBank ID AF451323.1, co-expressed in a mammalian cell line) is incubated in assay buffer for 15 minutes at 22° C. with test compound at different concentrations or without test compound (as a negative control). The assay buffer contains 25 mM HEPES pH 8.0, 10 mM Mg(CH3COO)2, 1 mM MnCl2, 0.1% BSA, 0.01% Brij® 35, and 5 mM dithiothreitol (DTT). […] Then, in a second step, purified human recombinant cmyc-tagged p53 (human p53, full length, GenBank ID: BC003596, expressed in Sf21 insect cells) and ATP are added and the reaction mixture is incubated for 25-35 minutes, typically 25 minutes, at 22° C. The pharmacologically relevant assay volume is 5 μl. The final concentrations in the assay during incubation of the reaction mixture are 0.3-0.5 nM, typically 0.3 nM, ATR/ATRIP, 50 nM p53, and 0.5 μM ATP. The enzymatic reaction is stopped by the addition of EDTA. […] Following signal development for 2 h the plates are analyzed in an EnVision (PerkinElmer) microplate reader using the TRF mode with laser excitation. […] Data are processed employing the Genedata Screener software. In particular, IC50 values are determined in the usual manner by fitting a dose-response curve to the data points using nonlinear regression analysis.

T1 sequence (Q13535 whole entry): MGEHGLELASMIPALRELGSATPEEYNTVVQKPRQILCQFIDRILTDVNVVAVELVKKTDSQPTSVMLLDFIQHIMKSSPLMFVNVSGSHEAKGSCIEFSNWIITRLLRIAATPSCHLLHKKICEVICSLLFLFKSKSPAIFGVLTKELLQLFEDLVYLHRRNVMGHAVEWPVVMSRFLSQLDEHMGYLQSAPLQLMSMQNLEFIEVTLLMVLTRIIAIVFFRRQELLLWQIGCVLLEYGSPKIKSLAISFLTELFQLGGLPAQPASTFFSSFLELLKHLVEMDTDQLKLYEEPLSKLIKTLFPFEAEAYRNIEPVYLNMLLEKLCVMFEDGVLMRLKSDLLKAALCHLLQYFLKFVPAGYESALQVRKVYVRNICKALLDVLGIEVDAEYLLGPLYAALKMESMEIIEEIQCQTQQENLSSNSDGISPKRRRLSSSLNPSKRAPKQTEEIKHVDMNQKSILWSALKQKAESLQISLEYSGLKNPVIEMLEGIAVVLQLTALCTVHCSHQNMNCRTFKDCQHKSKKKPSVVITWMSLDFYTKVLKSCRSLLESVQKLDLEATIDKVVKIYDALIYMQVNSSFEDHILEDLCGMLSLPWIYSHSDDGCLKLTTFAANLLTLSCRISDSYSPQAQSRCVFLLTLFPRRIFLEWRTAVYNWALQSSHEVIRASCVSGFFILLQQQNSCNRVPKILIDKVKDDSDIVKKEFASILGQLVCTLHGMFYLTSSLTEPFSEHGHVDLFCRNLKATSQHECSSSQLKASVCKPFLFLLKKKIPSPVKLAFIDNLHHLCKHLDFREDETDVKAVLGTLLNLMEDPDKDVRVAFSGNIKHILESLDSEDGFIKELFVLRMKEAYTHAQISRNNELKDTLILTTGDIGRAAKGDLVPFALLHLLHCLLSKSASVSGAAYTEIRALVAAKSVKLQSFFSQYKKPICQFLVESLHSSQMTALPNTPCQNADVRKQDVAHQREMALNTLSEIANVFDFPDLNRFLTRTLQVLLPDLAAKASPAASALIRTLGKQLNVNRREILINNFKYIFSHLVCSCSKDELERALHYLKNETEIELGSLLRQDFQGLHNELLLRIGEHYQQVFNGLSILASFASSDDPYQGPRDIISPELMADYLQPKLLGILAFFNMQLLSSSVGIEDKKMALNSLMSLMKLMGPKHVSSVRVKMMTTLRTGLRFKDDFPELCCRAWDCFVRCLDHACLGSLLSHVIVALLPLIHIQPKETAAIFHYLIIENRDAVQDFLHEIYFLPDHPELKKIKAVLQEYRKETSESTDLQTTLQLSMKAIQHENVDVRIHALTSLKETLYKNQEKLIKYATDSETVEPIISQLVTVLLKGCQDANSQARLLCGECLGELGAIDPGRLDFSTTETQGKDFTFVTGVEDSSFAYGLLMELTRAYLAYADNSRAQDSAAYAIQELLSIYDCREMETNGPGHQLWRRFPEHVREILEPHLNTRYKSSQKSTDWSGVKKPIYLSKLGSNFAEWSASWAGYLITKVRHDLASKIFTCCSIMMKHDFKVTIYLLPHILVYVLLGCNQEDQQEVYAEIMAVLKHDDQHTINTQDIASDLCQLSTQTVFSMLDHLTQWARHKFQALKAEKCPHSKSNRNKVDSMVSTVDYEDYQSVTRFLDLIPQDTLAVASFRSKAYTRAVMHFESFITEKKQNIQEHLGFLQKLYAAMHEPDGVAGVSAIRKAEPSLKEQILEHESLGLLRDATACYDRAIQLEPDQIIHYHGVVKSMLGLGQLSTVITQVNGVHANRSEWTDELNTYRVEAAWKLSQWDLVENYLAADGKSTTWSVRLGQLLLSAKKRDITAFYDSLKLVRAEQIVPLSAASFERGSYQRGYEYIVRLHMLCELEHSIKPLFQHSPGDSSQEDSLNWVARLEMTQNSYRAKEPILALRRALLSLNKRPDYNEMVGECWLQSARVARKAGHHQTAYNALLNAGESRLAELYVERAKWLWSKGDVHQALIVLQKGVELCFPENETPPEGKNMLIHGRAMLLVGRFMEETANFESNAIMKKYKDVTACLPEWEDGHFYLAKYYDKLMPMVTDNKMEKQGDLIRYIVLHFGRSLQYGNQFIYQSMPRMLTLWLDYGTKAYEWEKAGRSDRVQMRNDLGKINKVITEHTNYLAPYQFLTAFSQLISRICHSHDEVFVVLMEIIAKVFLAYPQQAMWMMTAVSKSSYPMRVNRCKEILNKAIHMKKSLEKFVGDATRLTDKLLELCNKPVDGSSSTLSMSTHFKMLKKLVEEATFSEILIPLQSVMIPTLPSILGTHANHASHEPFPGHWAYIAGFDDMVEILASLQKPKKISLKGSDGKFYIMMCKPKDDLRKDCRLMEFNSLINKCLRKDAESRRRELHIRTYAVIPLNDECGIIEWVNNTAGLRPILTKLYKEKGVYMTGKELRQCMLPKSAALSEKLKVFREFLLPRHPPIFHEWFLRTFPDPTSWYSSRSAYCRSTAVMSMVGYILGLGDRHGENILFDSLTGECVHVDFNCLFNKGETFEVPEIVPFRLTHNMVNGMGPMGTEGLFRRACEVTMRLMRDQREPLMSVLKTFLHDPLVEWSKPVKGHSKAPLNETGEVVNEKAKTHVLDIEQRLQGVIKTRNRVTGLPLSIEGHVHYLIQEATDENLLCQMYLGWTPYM
T1 sequence (Q8WXE1 whole entry partner): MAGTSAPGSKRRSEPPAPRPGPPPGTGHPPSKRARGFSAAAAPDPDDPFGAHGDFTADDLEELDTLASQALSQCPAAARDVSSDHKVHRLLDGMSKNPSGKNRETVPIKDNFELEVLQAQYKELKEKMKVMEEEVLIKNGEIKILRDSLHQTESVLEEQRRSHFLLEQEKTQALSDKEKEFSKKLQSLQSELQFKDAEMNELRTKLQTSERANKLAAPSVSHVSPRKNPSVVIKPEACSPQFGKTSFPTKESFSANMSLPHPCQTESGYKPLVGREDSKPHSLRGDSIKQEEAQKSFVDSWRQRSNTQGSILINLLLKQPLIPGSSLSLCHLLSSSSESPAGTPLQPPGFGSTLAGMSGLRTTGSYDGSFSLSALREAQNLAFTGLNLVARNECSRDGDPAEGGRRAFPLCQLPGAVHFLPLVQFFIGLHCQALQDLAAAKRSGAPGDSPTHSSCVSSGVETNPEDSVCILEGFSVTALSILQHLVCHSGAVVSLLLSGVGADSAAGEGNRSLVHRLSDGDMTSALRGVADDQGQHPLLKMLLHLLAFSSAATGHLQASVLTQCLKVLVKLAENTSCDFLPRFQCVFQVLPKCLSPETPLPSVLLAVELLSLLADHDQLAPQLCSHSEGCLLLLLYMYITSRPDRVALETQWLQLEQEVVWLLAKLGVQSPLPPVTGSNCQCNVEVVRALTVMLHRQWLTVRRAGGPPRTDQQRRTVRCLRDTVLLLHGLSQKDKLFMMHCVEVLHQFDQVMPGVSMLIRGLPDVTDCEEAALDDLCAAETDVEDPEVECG

Compared with `CNc1nc2ccccc2n1-c1nc2c(c(C(C)(C)S(C)(=O)=O)n1)OC[C@H]1COC[C@@H](C)N21` [A8, {1-[(5R,8aR)-1-(1-Methanesulfonyl-1-methyl-ethyl)-5-methyl-5,6,8a,9-tetrahydro-8H-7,10-dioxa-2,4,4b-triaza-phenanthren-3-yl]-1H-benzimidazol-2-yl}-methyl-amine], `C[C@@H]1COC[C@H]2COc3c(nc(-n4cc(C#N)c5ccccc54)nc3C(C)(C)S(C)(=O)=O)N21` [A70, 1-[(5R,8aS)-1-(1-methanesulfonyl-1-methyl-ethyl)-5-methyl-5,6,8a,9-tetrahydro-8H-7,10-dioxa-2,4,4b-triaza-phenanthren-3-yl]-1H-indole-3-carbonitrile] is lower in pIC50: 8.00 to 9.00 for the first, 7.00 to 8.00 for the second. The first is the more potent here.

`CC(CO)NC(=O)c1nc2c(c(C(C)(C)S(C)(=O)=O)n1)OC[C@@H]1COC[C@@H](C)N21` (stereo partly drawn) [A56, (4bS,6R)-1-(1-methanesulfonyl-1-methyl-ethyl)-5-methyl-5,6,8a,9-tetrahydro-8H-7,10-dioxa-2,4,4b-triaza-phenanthrene-3-carboxylic Acid (2-hydroxy-1-methyl-ethyl)-amide] and `C[C@@H]1COC[C@H]2COc3c(nc(C(=O)Nc4ccnnc4)nc3C(C)(C)S(C)(=O)=O)N21` [A57, (4bS,6R)-1-(1-methanesulfonyl-1-methyl-ethyl)-5-methyl-5,6,8a,9-tetrahydro-8H-7,10-dioxa-2,4,4b-triaza-phenanthrene-3-carboxylic Acid pyridazin-4-ylamide] fall in the same range of pIC50: 4.52 to 6.30 for the first, 4.52 to 6.30 for the second.

First: C[C@@H]1COC[C@H]2COc3c(nc(C(=O)Nc4ncccn4)nc3C(C)(C)S(C)(=O)=O)N21 [A58, (4bS,6R)-1-(1-methanesulfonyl-1-methyl-ethyl)-5-methyl-5,6,8a,9-tetrahydro-8H-7,10-dioxa-2,4,4b-triaza-phenanthrene-3-carboxylic Acid pyrimidin-2-ylamide]
Second: C[C@@H]1COC[C@H]2COc3c(nc(Nc4nc[nH]n4)nc3C(C)(C)S(C)(=O)=O)N21 [A79, [(5R,8aS)-1-(1-methanesulfonyl-1-methyl-ethyl)-5-methyl-5,6,8a,9-tetrahydro-8H-7,10-dioxa-2,4,4b-triaza-phenanthren-3-yl]-(1H[1,2,4]triazol-3-yl)-amine]
The pIC50 of the first is lower: 4.52 to 6.30 for the first, 7.00 to 8.00 for the second. The second is the more potent here.

`C[C@@H]1COC[C@H]2COc3c(nc(-c4ccc(-c5ccn[nH]5)cc4)nc3C(C)(C)S(C)(=O)=O)N21` [A60, (5R,8aS)-1-(1-methanesulfonyl-1-methyl-ethyl)-5-methyl-3-[4-(2H-pyrazol-3-yl)-phenyl]-5,6,8a,9-tetrahydro-8H-7,10-dioxa-2,4,4b-triaza-phenanthrene] and `C[C@@H]1COC[C@H]2COc3c(nc(-c4ccc5ccncc5c4)nc3C(C)(C)S(C)(=O)=O)N21` [A76, (5R,8aS)-3-isoquinolin-7-yl-1-(1-methanesulfonyl-1-methyl-ethyl)-5-methyl-5,6,8a,9-tetrahydro-8H-7,10-dioxa-2,4,4b-triaza-phenanthrene] fall in the same range of pIC50: 7.00 to 8.00 for the first, 7.00 to 8.00 for the second.

First: C[C@@H]1COC[C@H]2COc3c(nc(-c4ccc(C5(N)COC5)cc4)nc3C(C)(C)S(C)(=O)=O)N21 [A62, 3-{4-[(5R,8aS)-1-(1-methanesulfonyl-1-methyl-ethyl)-5-methyl-5,6,8a,9-tetrahydro-8H-7,10-dioxa-2,4,4b-triaza-phenanthren-3-yl]-phenyl}-oxetan-3-ylamine]
Second: C[C@@H]1COC[C@H]2COc3c(nc(-c4ccc5c(c4)CCNC5)nc3C(C)(C)S(C)(=O)=O)N21 [A71, (5R,8aS)-1-(1-methanesulfonyl-1-methyl-ethyl)-5-methyl-3-(1,2,3,4-tetrahydro-isoquinolin-6-yl)-5,6,8a,9-tetrahydro-8H-7,10-dioxa-2,4,4b-triaza-phenanthrene]
The pIC50 of the first is lower: 4.52 to 6.30 for the first, 6.30 to 7.00 for the second. The second is the more potent here.

First: C[C@@H]1COC[C@H]2COc3c(nc(NCc4cn[nH]c4)nc3C(C)(C)S(C)(=O)=O)N21 [A65, [(5R,8aS)-1-(1-methanesulfonyl-1-methyl-ethyl)-5-methyl-5,6,8a,9-tetrahydro-8H-7,10-dioxa-2,4,4b-triaza-phenanthren-3-yl]-(1H-pyrazol-4-ylmethyl)-amine]
Second: C[C@@H]1COC[C@H]2COc3c(nc(Nc4cn[nH]c4)nc3C(C)(C)S(C)(=O)=O)N21 [A75, [(5R,8aS)-1-(1-methanesulfonyl-1-methyl-ethyl)-5-methyl-5,6,8a,9-tetrahydro-8H-7,10-dioxa-2,4,4b-triaza-phenanthren-3-yl]-(1H-pyrazol-4-yl)-amine]
The pIC50 of the first is lower: 4.52 to 6.30 for the first, 7.00 to 8.00 for the second.

`C[C@@H]1COC[C@H]2COc3c(nc(-c4ccc5cc(N)ncc5c4)nc3C(C)(C)S(C)(=O)=O)N21` [A66, 7-[(5R,8aS)-1-(1-methanesulfonyl-1-methyl-ethyl)-5-methyl-5,6,8a,9-tetrahydro-8H-7,10-dioxa-2,4,4b-triaza-phenanthren-3-yl]-isoquinolin-3-ylamine] and `C[C@@H]1COC[C@H]2COc3c(nc(-c4ccc5ncccc5c4)nc3C(C)(C)S(C)(=O)=O)N21` [A77, (5R,8aS)-1-(1-methanesulfonyl-1-methyl-ethyl)-5-methyl-3-quinolin-6-yl-5,6,8a,9-tetrahydro-8H-7,10-dioxa-2,4,4b-triaza-phenanthrene] fall in the same range of pIC50: 7.00 to 8.00 for the first, 7.00 to 8.00 for the second.

Compared with `C[C@@H]1COC[C@H]2COc3c(nc(-n4cc(C(N)=O)cn4)nc3C(C)(C)S(C)(=O)=O)N21` [A68, 1-[(S)-1-(1-methanesulfonyl-1-methyl-ethyl)-5-(R)-methyl-5,6,8a,9-tetrahydro-8H-7,10-dioxa-2,4,4b-triaza-phenanthren-3-yl]-1H-pyrazole-4-carboxylic Acid Amide], `C[C@@H]1COC[C@H]2COc3c(nc(-n4ccc(O)n4)nc3C(C)(C)S(C)(=O)=O)N21` [A82, 1-[(5R,8aS)-1-(1-methanesulfonyl-1-methyl-ethyl)-5-methyl-5,6,8a,9-tetrahydro-8H-7,10-dioxa-2,4,4b-triaza-phenanthren-3-yl]-1H-pyrazol-3-ol] is higher in pIC50: 4.52 to 6.30 for the first, 7.00 to 8.00 for the second. The second is the more potent here.

First: C[C@@H]1COC[C@H]2COc3c(nc(Oc4cn[nH]c4)nc3C(C)(C)S(C)(=O)=O)N21 [A80, (5R,8aS)-1-(1-methanesulfonyl-1-methyl-ethyl)-5-methyl-3-(1H-pyrazol-4-yloxy)-5,6,8a,9-tetrahydro-8H-7,10-dioxa-2,4,4b-triaza-phenanthrene]
Second: COc1cnc2[nH]ccc2c1-c1nc2c(c(C(C)(C)S(C)(=O)=O)n1)OC[C@@H]1COC[C@@H](C)N21 [A88, (10S,14R)-6-(2-methanesulfonylpropan-2-yl)-4-{5-methoxy-1H-pyrrolo[2,3-b]pyridin-4-yl}-14-methyl-8,12-dioxa-1,3,5-triazatricyclo[8.4.0.0^2,7]tetradeca-2,4,6-triene]
The pIC50 of the first is lower: 6.30 to 7.00 for the first, 7.00 to 8.00 for the second. The second is the more potent here.

Compared with `C[C@@H]1COC[C@H]2COc3c(nc(-c4cccc5c4CS(=O)(=O)N5)nc3C(C)(C)S(C)(=O)=O)N21` [A87, 4-[(10S,14R)-6-(2-methanesulfonylpropan-2-yl)-14-methyl-8,12-dioxa-1,3,5-triazatricyclo[8.4.0.0^{2,7}]tetradeca-2,4,6-trien-4-yl]-1,3-dihydro-2lambda6,1-benzothiazole-2,2-dione], `C[C@@H]1COC[C@H]2COc3c(nc(-c4c(C#N)cnc5[nH]ccc45)nc3C(C)(C)S(C)(=O)=O)N21` [A89, 4-[(10S,14R)-6-(2-methanesulfonylpropan-2-yl)-14-methyl-8,12-dioxa-1,3,5-triazatricyclo[8.4.0.0^{2,7}]tetradeca-2,4,6-trien-4-yl]-1H-pyrrolo[2,3-b]pyridine-5-carbonitrile] is higher in pIC50: 7.00 to 8.00 for the first, 8.00 to 9.00 for the second. The second is the more potent here.

Each molecule was assayed on phosphorylation of Chk1 (Ser 345) in HT29 colon adenocarcinoma cells (assay: pCHK1 cellular assay). Conditions: Homo sapiens, HT-29, Table 1, class symbols, hydroxyurea.
Type: cell-based
Text: Chk1 kinase acts downstream of ATR and has a key role in DNA damage checkpoint control. Activation of Chk1 involves phosphorylation of Ser317 and Ser345 (regarded as the preferential target for phosphorylation/activation by ATR) and occurs in response to blocked DNA replication and certain forms of genotoxic stress. Phosphorylation at Ser 345 serves to localize Chk1 to the nucleus following checkpoint activation.
This assay measures a decrease in phosphorylation of Chk1 (Ser 345) in HT29 colon adenocarcinoma cells following treatment with compound and hydroxyurea (which promotes fork stalling because of dNTP depletion) and using an immunocytochemical procedure and high content imaging.
For the assay HT29 cells are plated in culture medium (DMEM high Glucose (no phenol red), 2 mM Glutamax, 1 mM Pyruvate, 10% FCS into Greiner 384 well plates, black, μclear #781090 (2500 cells/well/30 μl) and incubated for at least 20 hours at 37° C., 10% CO2 and 90% rH. Diluted test compounds (1 nM-30 μM final) and hydroxyurea (3 mM final) are added simultaneously and cells are incubated for 4 h at 37° C. After fixation/prmeabilisation with 100% MeOH (−20° C. cold) and permeabilisation with 0.2% Triton X-100 a complete immunocytochemical procedure is performed using a specific anti-pChk1 antibody (Cell Signaling, #2348BF) and fluorescently labelled secondary antibody (Alexa Fluor® 488 goat anti-rabbit F(ab′)2 fragment, Invitrogen A11070) and parallel nuclear staining for cell counting.
The nuclear localised pChk1 signal is detected on an ImageXpress Ultra confocal high content reader and reported as % positive cells (nuclei).

For `CNc1nc2ccccc2n1-c1nc2c(c(C(C)(C)S(C)(=O)=O)n1)OC[C@H]1COC[C@@H](C)N21` [A8, {1-[(5R,8aR)-1-(1-Methanesulfonyl-1-methyl-ethyl)-5-methyl-5,6,8a,9-tetrahydro-8H-7,10-dioxa-2,4,4b-triaza-phenanthren-3-yl]-1H-benzimidazol-2-yl}-methyl-amine], the pIC50 was 6.00 to 7.00.
